Test results taken from patent US6737383B1, “Herbicidal oxadiazolidines” (priority 1999, dated 2004).

Columns and labels:
duck salad = test: Test B flood test duck salad; type: in vivo, Heteranthera limosa
Outline: (§1)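 Each value is a visual injury score relative to controls, with 10 meaning complete control and 0 no effect. Evaluation took place twelve to sixteen days after the 2-leaf-stage plants were treated and kept in the greenhouse.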

wild oat = test: Test B pre/postemergence wild oat; type: in vivo, Avena fatua; conditions: for Plant response rating, Wild oats: scale of 0 to 10 where 0 is no effect and 10 is complete control
Outline: (§2)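 Response is a visual 0-to-10 score relative to untreated plants, where 0 means no effect and 10 means complete control, taken twelve to sixteen days after application. Treatments went onto soil at planting and onto foliage of 1- to 4-leaf plants, using a surfactant-containing non-phytotoxic solvent.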

cocklebur = test: Test B pre/postemergence cocklebur; type: in vivo, Xanthium strumarium
Outline: as §2

crabgrass = test: Test B pre/postemergence crabgrass; type: in vivo, Digitaria sanguinalis
Outline: as §2

wheat = test: Test B pre/postemergence wheat; type: in vivo, Triticum aestivum; conditions: for Plant response rating, Wheat: scale of 0 to 10 where 0 is no effect and 10 is complete control
Outline: as §2

blackgrass = test: Test B pre/postemergence blackgrass; type: in vivo, Alopecurus myosuroides
Outline: as §2

corn = test: Test B pre/postemergence corn; type: in vivo, Zea mays
Outline: as §2

rice = test: Test B flood test rice; type: in vivo, Oryza sativa
Outline: as §1

velvetleaf = test: Test B pre/postemergence velvetleaf; type: in vivo, Abutilon theophrasti; conditions: for Plant response rating, Velvetleaf: scale of 0 to 10 where 0 is no effect and 10 is complete control
Outline: as §2

purple nutsedge = test: Test B pre/postemergence purple nutsedge; type: in vivo, Cyperus rotundus; conditions: for Plant response rating, Nutsedge: scale of 0 to 10 where 0 is no effect and 10 is complete control
Outline: as §2

giant foxtail = test: Test B pre/postemergence giant foxtail; type: in vivo, Setaria faberii
Outline: as §2

soybean = test: Test B pre/postemergence soybean; type: in vivo, Glycine max; conditions: for Plant response rating, Soybean: scale of 0 to 10 where 0 is no effect and 10 is complete control
Outline: as §2

pigweed = test: Test B pre/postemergence pigweed; type: in vivo, Amaranthus retroflexus; conditions: for Plant response rating, Redroot pigweed: scale of 0 to 10 where 0 is no effect and 10 is complete control
Outline: as §2

sugar beet = test: Test B pre/postemergence sugar beet; type: in vivo, Beta vulgaris; conditions: for Plant response rating, Sugarbeets: scale of 0 to 10 where 0 is no effect and 10 is complete control
Outline: as §2

surinam grass = test: Test B pre/postemergence surinam grass; type: in vivo, Brachiaria decumbens
Outline: as §2

[1] = Rate 62 g/ha, flood test species, Pre-emergence, visual evaluation after twelve to sixteen days
[2] = Rate 125 g/ha, under heading Pre-emergence, flood test species, visual evaluation after twelve to sixteen days
[3] = Rate 250 g/ha, Pre-emergence (flood test species), scale 0 to 10, 0 is no effect, 10 is complete control
[4] = Rate 500 g/ha, Pre-emergence, flood test species, scale 0 to 10 (0 no effect, 10 complete control)
[5] = Postemergence, Rate 250 g/ha, scale 0 to 10
[6] = Preemergence, Rate 250 g/ha, scale 0 to 10, 0 is no effect, 10 is complete control
[7] = Preemergence, Rate 500 g/ha, scale 0 to 10, 0 is no effect, 10 is complete control
[8] = Rate 62 g/ha, Postemergence, scale 0 to 10, 0 no effect, 10 complete control
[9] = Rate 125 g/ha, Postemergence, scale 0 to 10, 0 is no effect, 10 is complete control
[10] = Postemergence, Rate 500 g/ha, scale of 0 to 10 where 0 is no effect and 10 is complete control
[11] = Preemergence, Rate 62 g/ha, scale of 0 to 10 where 0 is no effect and 10 is complete control
[12] = Preemergence, Rate 125 g/ha, scale of 0 to 10 where 0 is no effect and 10 is complete control

C=CC(OC)n1c(=O)on(C(=O)N(c2ccc(F)cc2)C(C)C)c1=O (centres unmarked) [Compound 452]
Plant response rating, Ducksalad (0 to 10 scale, 0 is no effect, 10 is complete control) (duck salad; [1]): 0
Ducksalad plant response rating (0 to 10 scale, 0 is no effect, 10 is complete control) (duck salad; [2]): 0
Ducksalad plant response rating (duck salad; [3]): 0
Ducksalad plant response rating (duck salad; [4]): 0
Wild oats plant response rating (wild oat; [5]): 0
Plant response rating, Wild oats (wild oat; Preemergence, Rate 62 g/ha): 0
Plant response rating, Wild oats (wild oat; Preemergence, Rate 125 g/ha): 0
Wild oats plant response rating (wild oat; [6]): 0
Wild oats plant response rating (wild oat; [7]): 0
Wild oats plant response rating (wild oat; [8]): 0
Wild oats plant response rating (wild oat; [9]): 0
Cocklebur plant response rating (cocklebur; [5]): 0
Cocklebur plant response rating (cocklebur; [10]): 0
Plant response rating, Cocklebur (cocklebur; [11]): 0
Plant response rating, Cocklebur (cocklebur; [12]): 0
Cocklebur plant response rating (cocklebur; [6]): 0
Cocklebur plant response rating (cocklebur; [7]): 0
Cocklebur plant response rating (cocklebur; [8]): 0
Cocklebur plant response rating (cocklebur; [9]): 0
Crabgrass plant response rating (crabgrass; [5]): 6
Crabgrass plant response rating (crabgrass; [10]): 6
Plant response rating, Crabgrass (crabgrass; [11]): 5
Plant response rating, Crabgrass (crabgrass; [12]): 5
Crabgrass plant response rating (crabgrass; [6]): 5
Crabgrass plant response rating (crabgrass; [7]): 5
Crabgrass plant response rating (crabgrass; [8]): 3
Wheat plant response rating (wheat; [5]): 0
Plant response rating, Wheat (wheat; Preemergence, Rate 62 g/ha): 0
Plant response rating, Wheat (wheat; Preemergence, Rate 125 g/ha): 0
Wheat plant response rating (wheat; [6]): 0
Wheat plant response rating (wheat; [7]): 0
Wheat plant response rating (wheat; [8]): 0
Wheat plant response rating (wheat; [9]): 0
Blackgrass plant response rating (blackgrass; [5]): 3
Blackgrass plant response rating (blackgrass; [10]): 5
Plant response rating, Blackgrass (blackgrass; [11]): 0
Plant response rating, Blackgrass (blackgrass; [12]): 0
Blackgrass plant response rating (blackgrass; [6]): 2
Blackgrass plant response rating (blackgrass; [7]): 2
Blackgrass plant response rating (blackgrass; [8]): 0
Blackgrass plant response rating (blackgrass; [9]): 0
Corn plant response rating (corn; [5]): 0
Corn plant response rating (corn; [10]): 0
Plant response rating, Corn (corn; [11]): 0
Plant response rating, Corn (corn; [12]): 0
Corn plant response rating (corn; [6]): 0
Corn plant response rating (corn; [7]): 0
Corn plant response rating (corn; [8]): 0
Corn plant response rating (corn; [9]): 0
Plant response rating, Rice (0 to 10 scale, 0 is no effect, 10 is complete control) (rice; [1]): 0
Rice plant response rating (0 to 10 scale, 0 is no effect, 10 is complete control) (rice; [2]): 0
Rice plant response rating (rice; [3]): 0
Rice plant response rating (rice; [4]): 0
Velvetleaf plant response rating (velvetleaf; [5]): 0
Plant response rating, Velvetleaf (velvetleaf; Preemergence, Rate 62 g/ha): 0
Plant response rating, Velvetleaf (velvetleaf; Preemergence, Rate 125 g/ha): 0
Velvetleaf plant response rating (velvetleaf; [6]): 0
Velvetleaf plant response rating (velvetleaf; [7]): 0
Velvetleaf plant response rating (velvetleaf; [8]): 0
Velvetleaf plant response rating (velvetleaf; [9]): 0
Nutsedge plant response rating (purple nutsedge; [5]): 0
Plant response rating, Nutsedge (purple nutsedge; Preemergence, Rate 62 g/ha): 0
Plant response rating, Nutsedge (purple nutsedge; Preemergence, Rate 125 g/ha): 0
Nutsedge plant response rating (purple nutsedge; [6]): 0
Nutsedge plant response rating (purple nutsedge; [7]): 0
Nutsedge plant response rating (purple nutsedge; [8]): 0
Nutsedge plant response rating (purple nutsedge; [9]): 0
Giant foxtail plant response rating (giant foxtail; [5]): 7
Giant foxtail plant response rating (giant foxtail; [10]): 7
Plant response rating, Giant foxtail (giant foxtail; [11]): 2
Plant response rating, Giant foxtail (giant foxtail; [12]): 3
Giant foxtail plant response rating (giant foxtail; [6]): 4
Giant foxtail plant response rating (giant foxtail; [7]): 7
Giant foxtail plant response rating (giant foxtail; [8]): 2
Giant foxtail plant response rating (giant foxtail; [9]): 4
Soybean plant response rating (soybean; [5]): 1
Plant response rating, Soybean (soybean; Preemergence, Rate 62 g/ha): 0
Plant response rating, Soybean (soybean; Preemergence, Rate 125 g/ha): 0
Soybean plant response rating (soybean; [6]): 0
Soybean plant response rating (soybean; [7]): 0
Soybean plant response rating (soybean; [8]): 1
Soybean plant response rating (soybean; [9]): 1
Redroot pigweed plant response rating (pigweed; [5]): 0
Plant response rating, Redroot pigweed (pigweed; Preemergence, Rate 62 g/ha): 0
Plant response rating, Redroot pigweed (pigweed; Preemergence, Rate 125 g/ha): 0
Redroot pigweed plant response rating (pigweed; [6]): 0
Redroot pigweed plant response rating (pigweed; [7]): 0
Redroot pigweed plant response rating (pigweed; [8]): 0
Redroot pigweed plant response rating (pigweed; [9]): 0
Sugarbeets plant response rating (sugar beet; [5]): 0
Plant response rating, Sugarbeets (sugar beet; Preemergence, Rate 62 g/ha): 0
Plant response rating, Sugarbeets (sugar beet; Preemergence, Rate 125 g/ha): 0
Sugarbeets plant response rating (sugar beet; [6]): 0
Sugarbeets plant response rating (sugar beet; [7]): 0
Sugarbeets plant response rating (sugar beet; [8]): 0
Sugarbeets plant response rating (sugar beet; [9]): 0
B. signalgrass plant response rating (surinam grass; Postemergence, Rate 250 g/ha, scale 0 to 10, 0 no effect, 10 complete control): 0
B. signalgrass plant response rating (surinam grass; [10]): 0
Plant response rating, B. signalgrass (surinam grass; [11]): 0
Plant response rating, B. signalgrass (surinam grass; [12]): 0
B. signalgrass plant response rating (surinam grass; [6]): 0
B. signalgrass plant response rating (surinam grass; [7]): 0
B. signalgrass plant response rating (surinam grass; [8]): 0
B. signalgrass plant response rating (surinam grass; [9]): 0
